Assay results taken from ChEMBL document CHEMBL5154811, “Discovery of SPH5030, a Selective, Potent, and Irreversible Tyrosine Kinase Inhibitor for HER2-Amplified and HER2-Mutant Cancer Treatment” (J Med Chem, 2022).

How the values were obtained:
NCI-N87 [1] = assay: Antitumor activity against human NCI-N87 cells xenografted in BALB/c nude mouse assessed as tumor growth inhibition at 10 mg/kg/day, po administered once daily for 21 days relative to control; type: functional; conditions: NCI-N87, 504 h, time 21 day, read-out: TGI
BT-474 [2] = assay: Antiproliferative activity against human BT-474 cells assessed as inhibition of cell growth incubated for 72 hrs by Celltiter-Glo assay; type: functional, cell-based; conditions: BT-474, 72 h
[3] = molecular target: Epidermal growth factor receptor (Homo sapiens, UniProt P00533); assay: Inhibition of wild type human N-terminal GST tagged EGFR (669 to 1210 residues) expressed in Sf21 insect cells incubated for 30 mins in presence of ATP by HTRF analysis
Chain of Epidermal growth factor receptor (P00533 whole entry, the tested form may be a part): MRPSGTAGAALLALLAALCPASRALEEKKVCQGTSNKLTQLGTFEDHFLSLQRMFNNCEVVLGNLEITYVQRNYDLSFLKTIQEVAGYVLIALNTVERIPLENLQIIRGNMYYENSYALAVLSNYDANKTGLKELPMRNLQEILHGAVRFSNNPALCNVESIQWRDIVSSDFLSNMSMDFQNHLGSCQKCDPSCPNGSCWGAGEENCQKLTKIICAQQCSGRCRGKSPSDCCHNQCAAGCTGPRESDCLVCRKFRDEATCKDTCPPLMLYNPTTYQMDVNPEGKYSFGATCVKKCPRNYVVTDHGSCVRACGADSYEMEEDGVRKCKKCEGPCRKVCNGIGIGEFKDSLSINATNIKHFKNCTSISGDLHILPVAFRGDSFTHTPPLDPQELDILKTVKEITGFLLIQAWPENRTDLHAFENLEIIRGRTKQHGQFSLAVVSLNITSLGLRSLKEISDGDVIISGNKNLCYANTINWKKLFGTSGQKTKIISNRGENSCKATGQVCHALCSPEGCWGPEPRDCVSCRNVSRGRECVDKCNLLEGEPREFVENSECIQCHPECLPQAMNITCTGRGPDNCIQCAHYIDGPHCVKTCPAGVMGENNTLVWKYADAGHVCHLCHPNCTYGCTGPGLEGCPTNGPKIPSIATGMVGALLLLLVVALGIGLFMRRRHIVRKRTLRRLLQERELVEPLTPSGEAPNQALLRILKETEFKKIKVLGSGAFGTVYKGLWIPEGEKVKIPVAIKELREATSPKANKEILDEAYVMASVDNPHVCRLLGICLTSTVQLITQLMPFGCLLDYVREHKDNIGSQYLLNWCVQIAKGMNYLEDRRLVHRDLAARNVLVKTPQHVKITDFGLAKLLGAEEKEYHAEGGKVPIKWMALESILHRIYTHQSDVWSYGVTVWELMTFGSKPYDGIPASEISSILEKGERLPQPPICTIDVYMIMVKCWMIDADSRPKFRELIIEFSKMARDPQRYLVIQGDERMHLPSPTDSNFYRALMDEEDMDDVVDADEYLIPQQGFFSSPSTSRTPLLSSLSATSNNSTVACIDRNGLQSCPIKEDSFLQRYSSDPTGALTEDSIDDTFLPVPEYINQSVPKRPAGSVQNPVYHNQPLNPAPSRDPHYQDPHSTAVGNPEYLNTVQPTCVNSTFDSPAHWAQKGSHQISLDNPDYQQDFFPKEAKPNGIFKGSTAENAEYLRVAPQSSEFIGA

[4] = Toxicity in BALB/c nude mouse xenografted with human NCI-N87 cells assessed as mortality at 5 to 40 mg/kg, po administered once daily for 21 days; type: organism-based; conditions: in vivo, 504 h, dose 5-40 mg/kg, time 21 day
[5] = Metabolic stability in human liver microsomes assessed as half life at 1 uM preincubated for 5 mins followed by NADPH addition by LC-MS/MS analysis; type: ADME, Microsome
BaF3 [6] = assay: Antitumor activity against mouse BaF3 cells harbouring HER2 A775_G776insYVMA mutant xenografted in BALB/c nude mouse assessed as tumor growth inhibition by measuring relative tumor growth at 20 mg/kg, po qd for 13 days by caliper method relative to control; type: functional; conditions: time 13 day
[7] = Volume of distribution at steady state in cynomolgus monkey at 1 mg/kg, iv measured upto 1440 mins by LC/MS/MS analysis; type: ADME, organism-based, Macaca fascicularis; conditions: in vivo, read-out: Vdss
BT-474 [8] = assay: Antitumor activity against human BT-474 cells xenografted in BALB/c nude mouse assessed as tumor growth inhibition at 20 mg/kg/day, po administered once daily for 21 days relative to control; type: functional; conditions: BT-474, 504 h, time 21 day, read-out: TGI
[9] = Toxicity in BALB/c nude mouse xenografted with mouse BaF3 cells harbouring HER2 A775_G776insYVMA mutant assessed as reduction in body weight at 10 to 40 mg/kg, po qd for 13 days; type: organism-based; conditions: in vivo, 312 h, dose 10-40 mg/kg, time 13 day
NCI-N87 [10] = assay: Antitumor activity against human NCI-N87 cells xenografted in BALB/c nude mouse assessed as tumor growth inhibition by measuring relative tumor growth at 5 mg/kg/day, po administered once daily for 21 days by caliper method relative to control; type: functional; conditions: time 21 day
NCI-N87 [11] = assay: Antitumor activity against human NCI-N87 cells xenografted in BALB/c nude mouse assessed as tumor growth inhibition at 20 mg/kg/day, po administered once daily for 21 days relative to control; type: functional; conditions: NCI-N87, 504 h, time 21 day, read-out: TGI
NCI-N87 [12] = assay: Antitumor activity against human NCI-N87 cells xenografted in BALB/c nude mouse assessed as tumor growth inhibition by measuring relative tumor growth at 20 mg/kg/day, po administered once daily for 21 days by caliper method relative to control; type: functional; conditions: time 21 day
[13] = Half life in ICR mouse at 10 mg/kg, po measured upto 1440 mins by LC/MS/MS analysis; type: ADME, organism-based; conditions: in vivo
[14] = Half life in Sprague-Dawley rat at 10 mg/kg, po measured upto 1440 mins by LC/MS/MS analysis; type: ADME, organism-based; conditions: in vivo
BaF3 [15] = assay: Antitumor activity against mouse BaF3 cells harbouring HER2 A775_G776insYVMA mutant xenografted in BALB/c nude mouse assessed as tumor growth inhibition by measuring relative tumor growth at 10 mg/kg, po qd for 13 days by caliper method relative to control; type: functional; conditions: time 13 day
[16] = Toxicity in BALB/c nude mouse xenografted with mouse BaF3 cells harbouring HER2 A775_G776insYVMA mutant assessed as mortality at 10 to 40 mg/kg, po qd for 13 days; type: organism-based; conditions: in vivo, 312 h, dose 10-40 mg/kg, time 13 day
BT-474 [17] = assay: Antitumor activity against human BT-474 cells xenografted in BALB/c nude mouse assessed as tumor growth inhibition by measuring relative tumor growth at 20 mg/kg/day, po administered once daily for 21 days by caliper method relative to control; type: functional; conditions: time 21 day
NUGC-4 = assay: Antiproliferative activity against human NUGC-4 cells assessed as cell growth inhibition incubated for 72 hrs by Celltiter-Glo assay; type: functional, cell-based; conditions: NUGC-4, 72 h
[18] = Half life in cynomolgus monkey at 15 mg/kg, po measured upto 1440 mins by LC/MS/MS analysis; type: ADME, organism-based, Macaca fascicularis; conditions: in vivo
[19] = Tmax in cynomolgus monkey at 15 mg/kg, po measured upto 1440 mins by LC/MS/MS analysis; type: ADME, organism-based, Macaca fascicularis; conditions: in vivo
[20] = Toxicity in BALB/c nude mouse xenografted with human NCI-N87 cells assessed as reduction in body weight at 5 to 40 mg/kg, po administered once daily for 21 days; type: organism-based; conditions: in vivo, 504 h, dose 5-40 mg/kg, time 21 day
NCI-H441 = assay: Antiproliferative activity against human NCI-H441 cells assessed as cell growth inhibition incubated for 72 hrs by Celltiter-Glo assay; type: functional, cell-based; conditions: NCI-H441, 72 h
BT-474 [21] = assay: Antitumor activity against human BT-474 cells xenografted in BALB/c nude mouse assessed as tumor growth inhibition at 10 mg/kg/day, po administered once daily for 21 days relative to control; type: functional; conditions: BT-474, 504 h, time 21 day, read-out: TGI
MFE-280 = assay: Antiproliferative activity against human MFE-280 cells assessed as cell growth inhibition incubated for 72 hrs by Celltiter-Glo assay; type: functional, cell-based; conditions: MFE-280, 72 h
[22] = Oral bioavailability in Sprague-Dawley rat at 10 mg/kg measured upto 1440 mins by LC/MS/MS analysis; type: ADME, organism-based; conditions: in vivo
[23] = Cmax in ICR mouse at 10 mg/kg, po measured upto 1440 mins by LC/MS/MS analysis; type: ADME, organism-based; design: dose 10 mg/kg, time < 1440 min, route po; conditions: in vivo
[24] = AUC (0 to t) in ICR mouse at 10 mg/kg, po measured upto 1440 mins by LC/MS/MS analysis; type: ADME, organism-based; design: time < 1440 min, dose 10 mg/kg, route po; conditions: in vivo
[25] = Toxicity in BALB/c nude mouse xenografted with human BT-474 cells assessed as mortality at 5 to 40 mg/kg, po administered once daily for 21 days; type: organism-based; conditions: in vivo, 504 h, dose 5-40 mg/kg, time 21 day

Question: With CCOc1cc2ncnc(Nc3ccc(Oc4cc5nncn5cn4)c(C)c3)c2cc1NC(=O)/C(F)=C/[C@H]1CCCN1C as the compound, how does the inhibition in vivo at 10 mg/kg/day (NCI-N87 [1]) read?
Answer: Its inhibition in vivo at 10 mg/kg/day is 113%.

Question: What about the IC50 (BT-474 [2]) of the same compound?
Answer: The IC50 was 0.00201 µM.

Question: What about the IC50 [3] of the same compound?
Answer: The IC50 was 0.00813 µM.

Question: And the Activity [4]?
Answer: The Activity was “Non-Toxic”.

Question: What about the half-life at 1 µM [5] of the same compound?
Answer: Its half-life at 1 µM is 9.24 h.

Question: And the T/C (BaF3 [6])?
Answer: Its T/C is 6.89%.

Question: And the Vd [7]?
Answer: The Vd was 3.71 L/kg.

Question: What about the inhibition in vivo at 20 mg/kg/day (BT-474 [8]) of the same compound?
Answer: Its inhibition in vivo at 20 mg/kg/day is 123%.

Question: And the Activity [9]?
Answer: The Activity was “Non-Toxic”.

Question: And the T/C (NCI-N87 [10])?
Answer: The T/C was 5.26%.

Question: What about the inhibition in vivo at 20 mg/kg/day (NCI-N87 [11]) of the same compound?
Answer: Its inhibition in vivo at 20 mg/kg/day is 114%.

Question: And the T/C (NCI-N87 [12])?
Answer: Its T/C is 2.03%.

Question: And the half-life [13]?
Answer: The half-life was 3.6 h.

Question: What about the half-life [14] of the same compound?
Answer: Its half-life is 4.38 h.

Question: What about the T/C (BaF3 [15]) of the same compound?
Answer: Its T/C is 16.66%.

Question: And the Activity [16]?
Answer: Its Activity is “Non-Toxic”.

Question: What about the T/C (BT-474 [17]) of the same compound?
Answer: Its T/C is 7.68%.

Question: What about the IC50 (NUGC-4) of the same compound?
Answer: Its IC50 is 1.22 µM.

Question: What about the half-life [18] of the same compound?
Answer: Its half-life is 5.63 h.

Question: And the Tmax [19]?
Answer: The Tmax was 7.5 h.

Question: And the Activity [20]?
Answer: Its Activity is “Non-Toxic”.

Question: And the IC50 (NCI-H441)?
Answer: Its IC50 is 4.26 µM.

Question: And the inhibition in vivo at 10 mg/kg/day (BT-474 [21])?
Answer: The inhibition in vivo at 10 mg/kg/day was 123%.

Question: What about the IC50 (MFE-280) of the same compound?
Answer: Its IC50 is 3.97 µM.

Question: And the bioavailability [22]?
Answer: Its bioavailability is 71.3%.

Question: What about the Cmax [23] of the same compound?
Answer: The Cmax was 1900 ng/mL.

Question: And the AUC(0-t) at 24 h [24]?
Answer: The AUC(0-t) at 24 h was 13100 ng·h/mL.

Question: What about the Activity [25] of the same compound?
Answer: Its Activity is “Non-Toxic”.
